According to patent US6849602B1 (The Regents of the University of California, priority 1996, dated 2005):
Entries after “also recorded” stand apart in the source; their conditions may differ. No end group written: not given here.

What was measured:
neuroblastoma cells [1] = experiment: Neurotrophic activity (neurite outgrowth, choline acetyltransferase, cell death); assay type: cell-based
Chung model rats = experiment: Tactile allodynia (von Frey, 50% paw withdrawal threshold) after bolus intrathecal injection in Chung model rats; assay type: in vivo, rat; conditions: for activity in alleviating neuropathic pain as assayed using Chung rats: summary statement
Protocol: Each of the three peptides were obtained in pure form by chemical synthesis, dissolved in sterile PBS and buffered to a neutral pH.
The surgical procedure previously described by Kim and Chung, supra (1992) was performed on male Sprague-Dawley rats weighing 120 to 150 grams to induce an allodynic state. Briefly, the rats were anesthetized with halothane; subsequently, the left L-5 and L-6 spinal nerves were isolated adjacent to the vertebral column and ligated with 6.0 silk suture distal to the dorsal root ganglion.
After a ten to fourteen day post operative recovery period, a spinal catheter was introduced. Five days following the second surgery, intrathecal drug administration was accomplished using a gear driven micro-injection syringe connected to a spinal catheter inserted through the foramen magnum. Prior to testing, the rats were placed in clear plastic wire meshed cages and allowed to acclimate.
To assess the 50% mechanical threshold for paw withdrawal, a von Frey hair was applied to the hind foot avoiding the foot pad. Each of the von Frey hairs, which are calibrated to bend at increasing log forces, were pressed perpendicularly to the foot with sufficient force to cause slight bending for a duration of approximately six to eight seconds. A positive response was noted if the foot was sharply withdrawn. Six data points were collected for each point with the maximum and minimum stimulus noted for each time point. The resulting pattern of the responses was tabulated, and the 50% response threshold was computed. The graph gives the response to the indicated dosage of peptide given as a single intrathecal bolus injection. The X-axis indicates the time after the injection at which point the hypersensitivity to pressure on the foot pad was measured.

[2] = test system: normal male Sprague Dawley rats; experiment: Hot plate response latency in normal rats after intrathecal injection; assay type: in vivo, rat; conditions: hot plate 52.5° C., up to 180 minutes after intrathecal injection
Protocol: Briefly, the period of time before the rat withdraws the affected foot from a source of heat is defined as the hot plate latency and is a measure of tolerance to pain caused by a heat stimulus.
An intrathecal catheter was placed into normal male Sprague Dawley rats. […] Rats were examined on the hot plate (52.5° C.); hot plate response latencies were measured prior to injection and at various time points up to 180 minutes after the injection.

neuroblastoma cells [3] = conditions: O'Brien et al.; cited from earlier work
taxol-treated mice = experiment: Loss of thermal sensation (Hargreaves) in taxol-treated mice; assay type: in vivo, mouse
Protocol: Mice were administered taxol in order to induce sensory neuropathy.
The loss of thermal sensation was measured using a Hargreaves sensory testing apparatus as an indicator of sensory neuropathy.

## CEFLVKEVTKLIDDNKTEKEIL [SEQ ID NO:8]
Neuroblastoma cells [1]
  neurotrophic activity: lacks neurotrophic activity
Chung model rats; injection of 17.5 μg
  allodynic response: No change in the allodynic response
Chung model rats
  activity in alleviating neuropathic pain as assayed using Chung rats: inactive in alleviating neuropathic pain
Chung model rats; listed as SEQ ID NO8
  activity in alleviating neuropathic pain as assayed using Chung rats: lacks activity in alleviating neuropathic pain

## CEFLVKEVTKLIDNNKTEKEIL [SEQ ID NO:1]
[2]
  hot plate response latency: No significant elevation of the hot plate response latency
Neuroblastoma cells [1]
  neurotrophic activity: have neurotrophic activity
Neuroblastoma cells [3]
  cell death in neuroblastoma cells: prevents cell death in neuroblastoma cells
  choline acetyltransferase activity: stimulates
  neurite outgrowth: stimulates neurite outgrowth
taxol-treated mice; 100 μg/kg
  loss of thermal sensation: the loss of thermal sensation was inhibited
taxol-treated mice; similarly assayed, dose not stated
  loss of thermal sensation: effective in inhibiting less of thermal sensation
Chung model rats; FIG. 1
  duration of effect following administration: 3 h
Chung model rats; highest dose, intrathecal
  latest time point with significantly reduced allodynia: ≥ 180 min
Chung model rats; intrathecal bolus
  time after injection to significant effect: ≤ 15 min
  time of maximum (peak) effect post-injection: 120 min
Chung model rats; intrathecal injection of 0.007 μg
  tactile allodynia (force threshold): no significant reduction in allodynia
Chung model rats; intrathecal injection of 0.7 or 0.07 μg
  tactile allodynia (force threshold): suppressed allodynia in a dose-dependent fashion
Chung model rats
  activity in alleviating neuropathic pain as assayed using Chung rats: reduces the painful allodynia; also recorded: alleviate neuropathic pain

## LIDNNKTEKEIL [SEQ ID NO:3]
Neuroblastoma cells [1]
  neurotrophic activity: active as a neurotrophic factor

## TKLIDNDKTEKEIL [SEQ ID NO:9, substitution of the second conserved asparagine residue]
Neuroblastoma cells [1]
  neurotrophic activity: lacks neurotrophic activity

## TKSIDNNKTEKEIL [SEQ ID NO:10, substitution of the conserved leucine residue]
Neuroblastoma cells [1]
  neurotrophic activity: lacks neurotrophic activity
